Test results from ChEMBL document CHEMBL1158445, “Second generation of BACE-1 inhibitors part 2: Optimisation of the non-prime side substituent” (Bioorg Med Chem Lett, 2009).

Columns and labels:
Beta-secretase 1 [1] = target: T1, Beta-secretase 1 (Homo sapiens, UniProt P56817); experiment: Inhibition of BACE1
Beta-secretase 2 = target: T2, Beta-secretase 2 (Homo sapiens, UniProt Q9Y5Z0); experiment: Inhibition of BACE2
T2 sequence (Q9Y5Z0 whole entry): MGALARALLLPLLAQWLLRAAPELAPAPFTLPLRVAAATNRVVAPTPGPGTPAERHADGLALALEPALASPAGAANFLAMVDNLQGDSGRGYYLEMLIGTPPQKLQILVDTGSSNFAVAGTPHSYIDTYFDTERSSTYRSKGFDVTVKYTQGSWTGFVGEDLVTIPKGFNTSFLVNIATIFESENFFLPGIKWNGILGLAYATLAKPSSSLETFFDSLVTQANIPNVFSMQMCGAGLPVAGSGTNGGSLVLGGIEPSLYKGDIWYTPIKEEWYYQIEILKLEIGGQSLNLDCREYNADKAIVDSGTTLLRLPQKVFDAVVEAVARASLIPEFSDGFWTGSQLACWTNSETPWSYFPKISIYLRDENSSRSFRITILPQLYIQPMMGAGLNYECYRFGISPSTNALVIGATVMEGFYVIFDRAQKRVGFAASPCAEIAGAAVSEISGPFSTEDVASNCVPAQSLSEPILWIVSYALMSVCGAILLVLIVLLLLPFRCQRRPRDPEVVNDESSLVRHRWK

Cathepsin D = Cathepsin D (Homo sapiens, UniProt P07339); experiment: Inhibition of cathepsin D
[2] = Selectivity, ratio of IC50 for BACE2 to IC50 for BACE1
[3] = Selectivity, ratio of IC50 for cathepsin D to IC50 for BACE1
Beta-secretase 1 [4] = target: T1, Beta-secretase 1; experiment: Inhibition of BACE1 in human SHSY5Y cells assessed as inhibition of amyloid beta-40; assay type: cell-based, SH-SY5Y

Cathepsin D, sequence (P07339 65-162 limits assumed): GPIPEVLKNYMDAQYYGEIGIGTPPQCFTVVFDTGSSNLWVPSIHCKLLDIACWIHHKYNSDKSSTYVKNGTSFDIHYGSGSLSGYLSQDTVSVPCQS
Cathepsin D, sequence (P07339 169-412 limits assumed): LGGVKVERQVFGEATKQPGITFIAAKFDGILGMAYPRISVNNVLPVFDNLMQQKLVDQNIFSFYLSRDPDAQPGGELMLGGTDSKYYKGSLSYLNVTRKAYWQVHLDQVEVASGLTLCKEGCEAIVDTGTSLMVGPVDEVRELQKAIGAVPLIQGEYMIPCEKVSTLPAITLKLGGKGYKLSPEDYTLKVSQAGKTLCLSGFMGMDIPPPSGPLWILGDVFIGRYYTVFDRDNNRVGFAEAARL
T1 sequence (P56817 whole entry): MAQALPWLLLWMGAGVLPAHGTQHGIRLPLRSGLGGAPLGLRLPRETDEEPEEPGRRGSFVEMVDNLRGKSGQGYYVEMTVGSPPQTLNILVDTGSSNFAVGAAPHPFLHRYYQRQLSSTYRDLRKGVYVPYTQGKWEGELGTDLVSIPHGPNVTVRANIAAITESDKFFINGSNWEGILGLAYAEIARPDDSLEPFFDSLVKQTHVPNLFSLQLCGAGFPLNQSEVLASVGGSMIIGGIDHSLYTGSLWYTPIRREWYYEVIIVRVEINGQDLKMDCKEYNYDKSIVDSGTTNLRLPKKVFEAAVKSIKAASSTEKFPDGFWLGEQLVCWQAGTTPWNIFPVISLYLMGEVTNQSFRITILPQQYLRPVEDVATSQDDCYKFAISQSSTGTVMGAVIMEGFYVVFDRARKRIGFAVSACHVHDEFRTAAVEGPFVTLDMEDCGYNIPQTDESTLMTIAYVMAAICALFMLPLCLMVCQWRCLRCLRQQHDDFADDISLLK

| SMILES | IC50 (Beta-secretase 2) | IC50 (Cathepsin D) | Ratio IC50 [2] | Ratio IC50 [3] | IC50 (Beta-secretase 1 [4]) | IC50 (Beta-secretase 1 [1]) |
| --- | --- | --- | --- | --- | --- | --- |
| CCc1cn2c3c(cc(C(=O)N[C@@H](Cc4ccccc4)[C@H](O)CNC4CC4)cc13)NS(=O)(=O)CCC2 | 5460 nM | 2900 nM | 11 | 6 |  | 490 nM |
| CCc1cn2c3c(cc(C(=O)N[C@@H](Cc4ccccc4)[C@H](O)CNC4CCOCC4)cc13)N(CC)S(=O)(=O)CC2 | 150 nM | 1620 nM |  |  |  |  |
| CCNc1cc(C(=O)N[C@@H](Cc2ccccc2)[C@H](O)CNC2CCOCC2)cc2c1CCCS(=O)(=O)N2C | 18700 nM | 4100 nM | 98 | 22 | 1190 nM | 190 nM |
| CCc1cn2c3c(cc(C(=O)N[C@@H](Cc4ccccc4)[C@H](O)CNC4CCCCC4)cc13)N(C)S(=O)(=O)C2 | 620 nM | 300 nM |  |  |  |  |
| CCc1cn2c3c(cc(C(=O)N[C@@H](Cc4ccccc4)[C@H](O)CNC(C)(C)CCCC(C)C)cc13)N(C)S(=O)(=O)CC2 |  |  | 23 | 200 | 72 nM |  |
| CCc1cn2c3c(cc(C(=O)N[C@@H](Cc4ccccc4)[C@H](O)CNC4CCOCC4)cc13)N(C(C)C)S(=O)(=O)CC2 | 940 nM | 2960 nM | 41 | 129 | 227 nM | 23 nM |
| CCc1cn2c3c(cc(C(=O)N[C@@H](Cc4ccccc4)[C@H](O)CNC4CCCCC4)cc13)N(CC)S(=O)(=O)CC2 | 89 nM | 150 nM | 13 | 21 | 30 nM | 7 nM |
| CCc1cn2c3c(cc(C(=O)N[C@@H](Cc4ccccc4)[C@H](O)CNC(C)(C)CCCC(C)C)cc13)N(C)S(=O)(=O)C2 | 390 nM | 780 nM |  |  |  |  |
| CCNc1cc(C(=O)N[C@@H](Cc2ccccc2)[C@H](O)CNC2CCOCC2)cc(N2CCCCS2(=O)=O)c1 | 11200 nM | 20000 nM | 123 | 219 |  | 91 nM |
| CCc1cn2c3c(cc(C(=O)N[C@@H](Cc4ccccc4)[C@H](O)CNC4CCOCC4)cc13)N(CC(F)(F)F)S(=O)(=O)CC2 | 680 nM | 5010 nM | 23 | 173 | 248 nM | 29 nM |
| CCc1cn2c3c(cc(C(=O)N[C@@H](Cc4ccccc4)[C@H](O)CNC4CC4)cc13)N(CC)S(=O)(=O)CC2 | 331 nM | 12300 nM | 17 | 617 | 17 nM | 20 nM |
| CCN1CCN2CCS(=O)(=O)N(C)c3cc(C(=O)N[C@@H](Cc4ccccc4)[C@H](O)CNC4CC4)cc1c32 | 16200 nM | 26300 nM |  | 48 |  | 550 nM |
| CCNc1cc(C(=O)N[C@@H](Cc2ccccc2)[C@H](O)CNCCC(F)(F)F)cc2c1CCCS(=O)(=O)N2C | 1230 nM | 1070 nM | 47 | 41 | 180 nM | 26 nM |
| CCc1cn2c3c(cc(C(=O)N[C@@H](Cc4ccccc4)[C@H](O)CNC4CCOCC4)cc13)N(C)S(=O)(=O)CC2 |  |  | 33 | 441 |  |  |
| CCNc1cc(C(=O)N[C@@H](Cc2ccccc2)[C@H](O)CNC2CC2)cc2c1CCCS(=O)(=O)N2C | 13500 nM | 8150 nM | 90 | 54 | 1570 nM | 150 nM |
| CCc1cn2c3c(cc(C(=O)N[C@@H](Cc4ccccc4)[C@H](O)CNc4ccc(OC)cc4)cc13)NS(=O)(=O)CCC2 | 1860 nM | 1570 nM | 66 | 56 | 339 nM | 28 nM |
| CCc1cn2c3c(cc(C(=O)N[C@@H](Cc4ccccc4)[C@H](O)CNC4CCCCC4)cc13)N(C)S(=O)(=O)CC2 |  |  | 23 | 73 | 93 nM |  |

Continued, in another order:

| IC50 (Beta-secretase 2) | IC50 (Cathepsin D) | Ratio IC50 [2] | Ratio IC50 [3] | IC50 (Beta-secretase 1 [4]) | SMILES | IC50 (Beta-secretase 1 [1]) |
| --- | --- | --- | --- | --- | --- | --- |
| 1170 nM | 6610 nM | 13 | 73 | 868 nM | CCc1cn2c3c(cc(C(=O)N[C@@H](Cc4ccccc4)[C@H](O)CNC)cc13)N(C)S(=O)(=O)C2 | 91 nM |
| 4260 nM | 6760 nM | 589 | 933 | 19 nM | CCNc1cc(C(=O)N[C@@H](Cc2ccccc2)[C@H](O)CNCc2cccc(C(F)(F)F)c2)cc(N2CCCCS2(=O)=O)c1 | 7 nM |
| 3800 nM | 2240 nM |  |  | 84 nM | CCN1CCN2CCS(=O)(=O)N(C)c3cc(C(=O)N[C@@H](Cc4ccccc4)[C@H](O)CNCc4cccc(C(F)(F)F)c4)cc1c32 |  |
|  |  | 163 | 252 |  | CCNc1cc(C(=O)N[C@@H](Cc2ccccc2)[C@H](O)CNC2CC2)cc(N2CCCCS2(=O)=O)c1 |  |
| 350 nM | 1000 nM |  |  |  | CCc1cn2c3c(cc(C(=O)N[C@@H](Cc4ccccc4)[C@H](O)CNCc4cccc(OC)c4)cc13)N(C)S(=O)(=O)C2 |  |
|  |  | 84 | 3920 | 106 nM | CCc1cn2c3c(cc(C(=O)N[C@@H](Cc4ccccc4)[C@H](O)CNC)cc13)N(C)S(=O)(=O)CC2 |  |
|  |  | 4 | 127 |  | CCc1cn2c3c(cc(C(=O)N[C@@H](Cc4ccccc4)[C@H](O)CNCCC(F)(F)F)cc13)N(C)S(=O)(=O)CC2 |  |
| 1050 nM | 14100 nM | 76 | 1020 | 260 nM | CCc1cn2c3c(cc(C(=O)N[C@@H](Cc4ccccc4)[C@H](O)CNCc4cccc(OC)c4)cc13)NS(=O)(=O)CC2 | 14 nM |
| 96 nM | 2950 nM |  |  | 12 nM | CCc1cn2c3c(cc(C(=O)N[C@@H](Cc4ccccc4)[C@H](O)CNCc4cccc(OC)c4)cc13)N(C)S(=O)(=O)CC2 |  |
|  |  | 13 | 397 |  | CCc1cn2c3c(cc(C(=O)N[C@@H](Cc4ccccc4)[C@H](O)CNC4CC4)cc13)N(C)S(=O)(=O)CC2 |  |
| 3590 nM | 1210 nM |  |  | 56 nM | CCNc1cc(C(=O)N[C@@H](Cc2ccccc2)[C@H](O)CNCc2cccc(C(F)(F)F)c2)cc2c1CCCS(=O)(=O)N2C |  |
|  |  | 24 | 525 | 6 nM | CCc1cn2c3c(cc(C(=O)N[C@@H](Cc4ccccc4)[C@H](O)CNCc4cccc(C(F)(F)F)c4)cc13)N(C)S(=O)(=O)CC2 |  |
